Experimental data: patent publication US20240197871A1, “COMBINATION OF A CAR T CELL THERAPY AND AN IMMUNOMODULATORY COMPOUND FOR TREATMENT OF LYMPHOMA” (Juno Therapeutics, Inc., priority 2021, published 2024)

Tests used:
Ikaros = biological target: T1, Ikaros (Homo sapiens, UniProt Q13422+Q96SW2); experiment: Ikaros degradation in stimulated anti-CD19 CAR T cells (flow cytometry MFI); type: cell-based
T1 construct: analyzed by flow cytometry to assess intracellular levels of Ikaros and Aiolos in CAR+ T cells; endogenous in cells; host or cells: primary human CD4+ and CD8+ T cells from healthy donors, lentivirally transduced with an anti-CD19 CAR
Text: T cell compositions containing anti-CD19 CAR-expressing T cells were generated from leukapheresis samples from five healthy human adult donors by a process that included immunoaffinity-based selection of T cells by separately selecting CD4+ and CD8+ cells from the samples, resulting in two compositions enriched for CD4+ and CD8+ cells, respectively, per donor. Cells of the enriched CD4+ and CD8+ compositions were separately activated with anti-CD3/anti-CD28 beads and subjected to lentiviral transduction with a vector encoding an anti-CD19 CAR. The anti-CD19 CAR contained an anti-CD19 single-chain variable fragment (scFv) derived from a murine antibody (variable region derived from FMC63), an immunoglobulin-derived spacer, a transmembrane domain derived from CD28, a costimulatory region derived from 4-1BB, and a CD3-zeta intracellular signaling domain. The expression construct in the viral vector further contained sequences encoding a surrogate surface marker for CAR expression, which was separated from the CAR-encoding sequence by a T2A ribosome skip sequence. Transduced populations then were separately incubated in the presence of stimulating reagents for cell expansion. Expanded CD4+ and CD8+ cells were formulated and cryopreserved separately and stored.
Prior to use, the cryopreserved CD4+ and CD8+ engineered cell compositions were thawed and combined at approximately a 1:1 CD4:CD8 ratio for each donor. Cells of the combined composition were then stimulated at 37° C. with 5% CO2 for 24 hours with 30 µg/mL of a CAR-specific anti-idiotypic antibody (see, e.g., WO2018/023100).
Following incubation, the stimulated cells were stained with antibodies and analyzed by flow cytometry to assess intracellular levels of Ikaros and Aiolos in CAR+ T cells, as measured by median fluorescence intensity (MFI). MFI values for Ikaros and Aiolos were normalized and calculated as a percentage relative to vehicle control.

anti-CD19 CAR T cells [1] = experiment: Cell cycle phase (EdU incorporation) of stimulated anti-CD19 CAR T cells; type: cell-based, human; conditions: for percentage of cells in G1 phase: P<0.001
Description: (§1) Anti-CD19 CAR-expressing T cell compositions were generated from three different healthy donors as described in Example 1. Prior to use, cryopreserved CD4+ and CD8+ engineered cell compositions were thawed and combined at approximately a 1:1 CD4:CD8 ratio.
(§2) Following incubation, stimulated CAR T cells were harvested, washed twice in media, and assessed.
The cell cycle phases of CAR T cells treated with the compounds during CAR-specific stimulation with the plate-bound anti-idiotypic antibody were determined using EDU incorporation for two hours after three days of stimulation. For EDU incorporation, CAR T cells were labeled using the Click-iT™ EdU Cell Proliferation Kit (Thermo Fisher Scientific), after which the prepared cells were analyzed by flow cytometry. […] Without wishing to be bound by theory, the accumulation of CAR T cells in G1 phase may account for one of the mechanisms by which the compounds can limit onset of exhaustion during chronic stimulation, as shown in Example 3 below.

anti-CD19 CAR T cells [2] = experiment: Intracellular cytokine levels in stimulated anti-CD19 CAR T cells; type: cell-based, human; conditions: 72 hours, 30 μg/mL anti-idiotypic antibody
Description: as §1, §2
Intracellular cytokine levels in CAR T cells that had been stimulated for 72 hours with 30 μg/mL of anti-idiotypic antibody were determined. To do so, supernatants were collected from the stimulated CAR T cells and were analyzed for interferon-γ (IFN-γ) and interleukin-2 (IL-2) content using a multiplex electrochemiluminescence assay. To stain for intracellular cytokines, including Perforin and Granzyme B, cells were fixed and permeabilized using a Foxp3/Transcription Factor Staining Buffer Set (Thermo Fisher Scientific). Intracellular cytokine levels of IFNγ, perforin, granzyme B, and IL-2 were then determined by flow cytometry. […] Log2 fold-change values greater than zero are indicated with a “+” in FIG. 2F. Similar results were observed when measuring the percentage of cells positive for the cytokines.

[3] = system: Granta-519 lymphoma tumor spheroids; experiment: Chronic stimulation with concurrent treatment, re-challenge with tumor spheroids; type: cell-based
Description: To simulate conditions of chronic stimulation, anti-CD19 CAR-expressing T cells, produced as described in Example 1, were incubated with plate-bound CAR-specific anti-idiotypic antibody (see, e.g., WO2018/023100) and incubated at 37° C. for a period of six days. […] For instance, CAR T cells that were re-challenged with CD19+ tumor cells following the six-day stimulation had reduced IFNγ and IL-2 cytokine production (FIG. 3A) and reduced cytolytic function (FIG. 3B) compared to freshly thawed CAR T cells not subjected to the six-day stimulation.
The ability of Compound C to block or reduce this CAR T cell hypofunctionality following chronic stimulation was assessed. To do so, engineered CAR T cells were concurrently treated with Compound C, Compound 2, or a vehicle control during the six-day stimulation. Stimulated CAR T cells were then harvested, washed twice in media, and re-challenged with Granta-519 lymphoma tumor spheroids (that had been transduced with IncuCyte NucLight Red) in the absence of Compound C, after which cytolytic activity was assessed by loss of red fluorescence over time and averaged measurement of tumor spheroid size at various times following co-culture with CAR-T cells. Cytokine production, Ikaros expression, and gene expression of the CAR T Cells also were assessed.
FIGS. 3D and 3E show the volume of tumor spheroids co-cultured with CAR T cells that were stimulated in the presence of Compound C after chronic stimulation. As shown in FIG. 3D and FIG. 3E, cytolytic activity during re-challenge was improved by treatment with Compound C at a 1 nM concentration during stimulation (**** P<0.0001).

T1 sequence (Q13422 whole entry): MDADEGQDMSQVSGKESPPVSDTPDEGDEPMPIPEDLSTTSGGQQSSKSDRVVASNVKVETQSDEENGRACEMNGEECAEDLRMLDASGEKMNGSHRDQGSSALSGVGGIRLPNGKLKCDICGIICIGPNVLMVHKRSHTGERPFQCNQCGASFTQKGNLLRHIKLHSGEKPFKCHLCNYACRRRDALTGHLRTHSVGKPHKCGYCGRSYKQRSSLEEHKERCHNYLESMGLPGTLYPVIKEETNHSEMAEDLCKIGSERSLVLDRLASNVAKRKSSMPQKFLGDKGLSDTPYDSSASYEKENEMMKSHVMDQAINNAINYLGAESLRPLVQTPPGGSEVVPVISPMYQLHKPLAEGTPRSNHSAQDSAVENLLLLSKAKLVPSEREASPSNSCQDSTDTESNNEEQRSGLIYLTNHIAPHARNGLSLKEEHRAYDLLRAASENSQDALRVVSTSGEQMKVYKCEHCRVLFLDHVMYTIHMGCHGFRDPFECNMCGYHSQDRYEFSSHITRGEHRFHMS
T1 sequence (Q96SW2 whole entry): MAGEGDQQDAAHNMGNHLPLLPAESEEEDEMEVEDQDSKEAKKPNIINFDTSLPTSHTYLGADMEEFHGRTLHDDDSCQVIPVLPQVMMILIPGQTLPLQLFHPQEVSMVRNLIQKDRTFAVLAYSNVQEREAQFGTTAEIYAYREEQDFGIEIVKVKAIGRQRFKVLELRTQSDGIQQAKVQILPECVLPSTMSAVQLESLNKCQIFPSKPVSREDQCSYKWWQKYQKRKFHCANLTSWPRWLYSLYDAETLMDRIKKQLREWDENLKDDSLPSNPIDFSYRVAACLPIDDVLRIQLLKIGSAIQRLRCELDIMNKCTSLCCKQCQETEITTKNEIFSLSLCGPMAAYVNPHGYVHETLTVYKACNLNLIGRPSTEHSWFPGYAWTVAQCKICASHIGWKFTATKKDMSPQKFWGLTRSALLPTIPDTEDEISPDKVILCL
T1 sequence (Q16531 whole entry partner): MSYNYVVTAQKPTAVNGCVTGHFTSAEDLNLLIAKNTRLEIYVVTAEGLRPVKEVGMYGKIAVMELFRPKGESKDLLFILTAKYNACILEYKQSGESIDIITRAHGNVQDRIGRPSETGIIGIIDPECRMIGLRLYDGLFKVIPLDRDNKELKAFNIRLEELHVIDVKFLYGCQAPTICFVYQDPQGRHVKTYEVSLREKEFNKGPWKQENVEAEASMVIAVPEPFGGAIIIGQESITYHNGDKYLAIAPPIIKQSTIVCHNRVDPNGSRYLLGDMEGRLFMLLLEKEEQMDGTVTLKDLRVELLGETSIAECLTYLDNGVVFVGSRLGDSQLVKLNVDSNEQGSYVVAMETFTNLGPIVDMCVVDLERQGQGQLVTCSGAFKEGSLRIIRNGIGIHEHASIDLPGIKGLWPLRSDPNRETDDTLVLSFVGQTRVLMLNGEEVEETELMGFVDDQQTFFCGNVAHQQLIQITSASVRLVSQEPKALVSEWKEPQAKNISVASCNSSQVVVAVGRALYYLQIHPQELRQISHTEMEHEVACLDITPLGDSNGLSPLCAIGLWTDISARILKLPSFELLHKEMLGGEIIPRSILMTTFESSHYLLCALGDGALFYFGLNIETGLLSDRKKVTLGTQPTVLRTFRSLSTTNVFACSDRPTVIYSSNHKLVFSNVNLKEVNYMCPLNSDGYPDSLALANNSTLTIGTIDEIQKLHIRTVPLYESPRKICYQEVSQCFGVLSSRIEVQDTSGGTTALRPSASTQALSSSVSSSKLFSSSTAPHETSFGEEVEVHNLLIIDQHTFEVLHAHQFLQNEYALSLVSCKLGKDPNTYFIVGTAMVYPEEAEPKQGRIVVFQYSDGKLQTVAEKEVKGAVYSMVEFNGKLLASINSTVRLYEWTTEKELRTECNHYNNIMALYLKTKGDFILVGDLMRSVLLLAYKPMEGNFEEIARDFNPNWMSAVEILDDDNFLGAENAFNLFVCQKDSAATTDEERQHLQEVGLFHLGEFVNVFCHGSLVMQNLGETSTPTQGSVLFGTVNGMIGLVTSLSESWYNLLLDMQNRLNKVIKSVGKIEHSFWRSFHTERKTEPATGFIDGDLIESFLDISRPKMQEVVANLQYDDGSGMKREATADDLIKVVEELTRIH

DC50 (Ikaros; anti-CD19 CAR T cells, 24 hours stimulation with anti-idiotypic antibody, concentration reducing MFI to 50%, average of five donors, read-out: Average EC50 Values (95% Confidence Interval), Ikaros): 0.31 nM | intracellular Ikaros expression (MFI relative to vehicle control) (Ikaros; approximately 10^-1 to 10^4 nM, 24 hours): Concentration-dependent decreases | Ikaros expression compared with Compound 2 or Compound 1 (Ikaros; at all compound concentration levels tested): lower
SMILES: O=C1CC[C@H](N2C(=O)c3cccc(NCc4ccc(CN5CC(N6CCOCC6)C5)cc4F)c3C2=O)C(=O)N1 [Compound C, (S)-2-(2,6-dioxopiperidin-3-yl)-4-((2-fluoro-4-((3-morpholinoazetidin-1-yl)methyl)benzyl)amino)isoindoline-1,3-dione]
dose with similar effects on percentage of cells in G1 phase, compared to the other compounds tested (anti-CD19 CAR T cells [1]): ten- or hundred-fold lower dose | percentage of cells in G1 phase (anti-CD19 CAR T cells [1]; 1 nM): increased | percentage of cells in G1 phase (anti-CD19 CAR T cells [1]; 10 nM): increased | effect on percentage of cells in G1 phase compared with the other compounds (anti-CD19 CAR T cells [1]; at all doses tested): most effect on the percentage of cells in G1 phase | intracellular expression of effector cytokines (IFNγ, perforin, granzyme B), fold change in MFI vs vehicle (anti-CD19 CAR T cells [2]): increased production of certain cytokines | IFNγ production in supernatant five days after re-challenge ([3]; 1 nM concurrently during chronic stimulation, P<0.0001): improved IFNγ production | cytolytic activity during re-challenge (tumor spheroid volume) ([3]; 1 nM during six-day chronic stimulation (concurrent), P<0.0001): improved | IFNγ production in supernatant five days after re-challenge ([3]; 10 nM during chronic stimulation, P<0.001, lesser extent than 1 nM): increased IFNγ production | tumor size at day 9 of co-culture ([3]; 10 nM during six-day chronic stimulation (concurrent), P<0.05, lesser extent than 1 nM): reduced tumor size
